Laboratory results published in US12054464B1, “Methyl 4-((5-(3-fluorophenyl)-4-phenyl-4H-1,2,4-triazol-3-ylthio)methyl)benzoate as an antimicrobial compound” (KING FAISAL UNIVERSITY, priority 2023, dated 2024).

What was measured:
[1] = system: Chrysosporium keratinophilum; experiment: agar plate disc-diffusion, antifungal activity by inhibition zone; type: cell-based
Description: (§1) The agar plate disc-diffusion method was applied. Sterilized filter papers (6 mm in diameter) were wetted with 10 μL of a solution of methyl 4-((5-(3-fluorophenyl)-4-phenyl-4H-1,2,4-triazol-3-ylthio)methyl)benzoate (III) to be tested, containing 10 mg/mL in DMSO, and the discs were allowed to air dry. The discs were then placed onto the surface of agar plates (nutrient agar for bacteria and Sabouraud's dextrose agar for fungi) seeded with the test organism. Each plate contained 15 mL of the agar medium, previously seeded with 0.2 mL of the broth culture of each organism pregrown for 18 hours. The plates were incubated at 37 °C for 48 hours, and 72 hours for fungi. The inhibition zones were measured in mm. Discs impregnated with DMSO were used as a control, and its inhibition zone was subtracted from the tested compound actual inhibition zone.

Aspergillus flavus = experiment: as above; type: cell-based
Description: as §1

Escherichia coli = experiment: agar plate disc-diffusion, antibacterial activity by inhibition zone; type: cell-based; conditions: Escherichia coli (Gram negative)
Description: as §1

Bacillus Cereus = experiment: as above; type: cell-based; conditions: Bacillus Cereus (Gram positive)
Description: as §1

Staphylococcus aureus = experiment: as above; type: cell-based; conditions: Staphylococcus aureus (Gram positive)
Description: as §1

Pseudomonas aeruginosa = experiment: as above; type: cell-based; conditions: Pseudomonas aeruginosa (Gram negative)
Description: as §1

[2] = A = concentration of comp. = 10,000 μL
[3] = B = concentration of comp. = 30,000 μL
[4] = C = concentration of comp. = 50,000 μL

Row | SMILES | inhibition zone [1, 2] [mm] | inhibition zone [1, 3] [mm] | inhibition zone [1, 4] [mm] | inhibition zone (Aspergillus flavus; [2]) [mm] | inhibition zone (Aspergillus flavus; [3]) [mm] | inhibition zone (Aspergillus flavus; [4]) [mm] | inhibition zone (Escherichia coli; [2]) [mm] | inhibition zone (Escherichia coli; [3]) [mm] | inhibition zone (Escherichia coli; [4]) [mm] | inhibition zone (Bacillus Cereus; [2]) [mm] | inhibition zone (Bacillus Cereus; [3]) [mm] | inhibition zone (Bacillus Cereus; [4]) [mm] | inhibition zone (Staphylococcus aureus; [2]) [mm] | inhibition zone (Staphylococcus aureus; [3]) [mm] | inhibition zone (Staphylococcus aureus; [4]) [mm] | inhibition zone (Pseudomonas aeruginosa; [2]) [mm] | inhibition zone (Pseudomonas aeruginosa; [3]) [mm] | inhibition zone (Pseudomonas aeruginosa; [4]) [mm] | melting point [°C]
1 | O=C(O)c1cn(C2CC2)c2cc(N3CCNCC3)c(F)cc2c1=O [Cip., ciprofloxacin, reference compound] | 29 | 30 | 53 | 29 | 30 | 42 | 30 | 39 | 60 | 29 | 30 | 42 | 43 | 44 | 53 | 29 | 30 | 53 | –
2 | COC(=O)c1ccc(CSc2nnc(-c3cccc(F)c3)n2-c2ccccc2)cc1 [III, methyl 4-((5-(3-fluorophenyl)-4-phenyl-4H-1,2,4-triazol-3-ylthio)methyl)benzoate] | 28 | 30 | 49 | 19 | 24 | 34 | 29 | 38 | 54 | 28 | 29 | 40 | 14 | 20 | 23 | 24 | 33 | 40 | 185 to 186
